As usually defined, the melting point is the temperature of the solid-liquid transition.

Where only a bound is given, the exact number is not on record here.

For 89 molecules, melting point results are on record in a melting point compilation (Tetko et al.; mined from patent text by program, amines drawn as free bases though some values may be those of a salt).

In turn, `CC(=O)Nc1cccc(-n2ccnc2)c1` showed a melting point of 181 to 183 °C.

`CC(C)(C)OC(=O)NCc1nnc(S)s1` gave a melting point of 144 to 146 °C.

`CC(=O)OC1CSC(Sc2ccc(S(=O)(=O)c3ccccc3)cc2)C(OC(C)=O)C1OC(C)=O` (centres undefined): the melting point is 159 °C.

`CC(C(=O)O)N1CCNC(C(=O)O)C1` (centres undefined): the melting point was 173 to 174 °C.

With `CCOC(=O)c1c(CN(CC)CC)nc2sc3c(c2c1-c1ccc(OC)c(OC)c1)CCN(C(=O)NC)C3`, the melting point lay in the range of 153 to 155 °C.

On to `CCCCCCC1CCC(O)C(=O)O1` (centres undefined), for which the melting point was 75.5 to 77 °C.

For the molecule `Cc1ccc2c(n1)C(=O)N(c1c(Cl)ccc(C)c1C#N)C2=O`, the melting point was 173 to 176 °C.

`O=C(O)C(CC1CCCCC1)NC(=O)C(CS)C(F)(F)F` (centres undefined) had a melting point of 116 to 118 °C.

Turning to `CCOC(=O)c1cnc2ccn(-c3ccncc3)n2c1=O`, the melting point lay within 103 to 104 °C.

In turn, `Fc1ccc(Nc2ncnc3cnc(N4CCC(CCCC5CCNCC5)CC4)nc23)cc1Cl` came in with a melting point of 128 to 130 °C.

For the molecule `COC(=O)c1cc(C)cc(C#N)c1`, the melting point lay within 68 to 69 °C.

`CCOC(=O)COn1c2c([nH]c(=O)c1=O)CCC1=C2C=C(n2ccc(CNC(=O)C(F)(F)F)c2)CC1` displayed a melting point of 199 °C.

For the molecule `CCS(=O)c1cnc(Cl)c(Cl)c1` (centres undefined), the melting point was 78 to 79 °C.

The molecule `c1ccc(COc2ccc3c(c2)CCc2c-3[nH]c3ccc(OCc4ccccc4)cc23)cc1` registered a melting point of 177 to 180 °C.

`CCOC(=O)c1c(C)nc2c(cnn2CC)c1Cl` came in with a melting point of 54 to 56 °C.

The molecule `Cc1nccc(N2CCC(C(=O)N3CCN(S(=O)(=O)c4ccc(Br)cc4)CC3)CC2)n1` yielded a melting point of 200 to 202 °C.

In the case of `CCCCNC(=S)NS(=O)(=O)c1cc2c(cc1OC)OCCC2CNC(=O)c1cc(Cl)ccc1OC` (centres undefined), the melting point was determined as 167 °C.

For the molecule `CC(NC(=O)c1cc(Cl)ccc1[N+](=O)[O-])C1CC1` (centres undefined), the melting point was 137 to 141 °C.

The molecule `CCCN(CCC)C1Cc2c(-c3ncco3)ccc3c2C(C1)CN3C(=O)c1ccccc1` (single isomer, unassigned; (-)) had a melting point of 103 to 104 °C.

`COc1cc2c(c(OC)c1OC)OCC2=O` registered a melting point of 81 to 83 °C.

Consider `CCOC(C)n1c(Cl)nc(-c2ccc(OC)cc2)c1-c1ccc(OC)cc1` (centres undefined), for which the melting point fell in the range of 118 to 120 °C.

With `CCCc1nnc(N2CCN(c3ccc(N4CC(CNC(C)=O)OC4=O)cc3F)CC2)s1` (centres undefined), the melting point was 208 to 209 °C.

Turning to `COc1ccccc1NC1CN([C@H]2CC[C@@H](c3c[nH]c4ccccc43)CC2)C1`, the melting point is 67 to 70 °C.

The molecule `N#CC=C(N)c1ccccc1C(F)(F)F` registered a melting point of 101 to 103 °C.

Consider `O=C(O)C(OCc1ccc(-c2ccc(Cl)cc2)cc1)(C(F)(F)F)C(F)(F)F`, for which the melting point fell in the range of 90 to 92 °C.

Molecule `CC(C)(C)NC(=O)c1ccc(S(=O)(=O)N2C(=O)C(C)(c3ccccc3Cl)c3cc(OCC(F)(F)F)ccc32)cc1` (centres undefined) returned a melting point of 134 °C.

The molecule `COc1cc(C(C)=O)c(OC)cc1Cl` displayed a melting point of 96 °C.

For the molecule `CC(=O)NC(Cc1c[nH]c2ccccc12)C(=O)OC(c1ccccc1)c1ccccc1` (centres undefined), the melting point is 147 to 148 °C.

`N#Cc1c(N2CCN(C(=O)c3c[nH]cn3)CC2)c2ccccc2n(Cc2ccc(F)cc2)c1=O` returned a melting point of 176 to 183 °C.

For `CCN(CC)C(=O)Oc1nc(C)c2cc(OC)c(OC)cc2c1N`, the melting point was in the range of 206 to 207 °C.

`COC1C=C2CC(OC(C)=O)CCC2(C)C2CCC3(C)C(=O)CCC3C12` (centres undefined) showed a melting point of 175 to 178 °C.

Take `Cc1nc(CS(C)(=O)=O)nc(OC(=O)NN2CC(C)OC(C)C2)c1C` (centres undefined): the melting point was determined as 103 °C.

Consider `CCCC(=O)c1cc(-c2ccccc2)ns1`, for which the melting point is 70 °C.

Regarding `CCc1ccc(N2CCCN(c3cc[nH]c(=S)c3C#N)CC2)cc1`, the melting point lay in the range of 226 to 229 °C.

Turning to `CC(C)(C)c1ccc(NC(=O)N2CCC3(CC2)CC(CCc2ccccc2)=NO3)cc1`, the melting point was 153 to 154 °C.

`COc1cccc(C(N)=O)c1[N+](=O)[O-]`: the melting point fell in the range of 212 to 214 °C.

In turn, `CC(C)(C)OC(=O)N1CCN(c2cccc(-c3cnc4[nH]cc(C(=O)C5(C)CCCCC5)c4n3)c2)CC1` yielded a melting point of 212 to 213 °C.

In turn, `Cc1cc(C)cc(C(=O)c2c(C(C)C)c(=O)[nH]c(=O)n2C/C=C/CCl)c1` showed a melting point of 178 to 179 °C.

For `COC(=O)Nn1c(N)c(C#N)c(C)c1-c1ccccc1`, the melting point is 178 to 179 °C.

In the case of `O=C(c1cccs1)c1cnn2c(-c3cccc(NC/C=C/c4ccccc4)c3)ccnc12`, the melting point lay within 123 to 125 °C.

`CC(C)(C)OC(=O)NC1CCc2ccccc2C(F)C1=O` (centres undefined) yielded a melting point of 127 to 129 °C.

Regarding `COc1ccc(C2=NNC(=O)[C@H]3CCCC[C@@H]23)cc1OC1CCCC1` (relative stereo), the melting point was 175 to 176 °C.

`CCOc1ccc(S(=O)(=O)c2ccc(C)nc2Nc2c(C)cc(C)cc2C)cc1`: the melting point was 157 to 159 °C.

Molecule `CC1(C)CCc2c(N3CCOCC3)nc3sc4c(NCCc5c[nH]cn5)ncnc4c3c2C1` gave a melting point of 223 to 224 °C.

Take `COc1cc2c(cc1OC)CN(NC1=NCCN1)C2`: the melting point fell in the range of 191 to 192 °C.

In the case of `CCCCOc1cc(C(=O)O)cc([N+](=O)[O-])c1-c1ccccc1`, the melting point is 133 to 134 °C.

In the case of `Cc1csc2c(Sc3nnc(N)s3)ncnc12`, the melting point lay in the range of 221 to 223 °C.

As for `Cc1cc(CCCCCCCOc2ccc(C3=NCC(CO)O3)cc2)on1` (centres undefined), the melting point fell in the range of 71 to 73 °C.

In turn, `CN1CC(CCN2CCN(c3ccccc3F)CC2)OC1=O` (centres undefined) yielded a melting point of 80 to 82 °C.

As for `CC1CSc2c(-c3ccccc3)c3ccccc3c(=O)n21` (centres undefined), the melting point lay in the range of 204 to 208 °C.

`Cc1nc(C)c(Cl)c(NCc2nccc(SCCCSCCn3c([N+](=O)[O-])cnc3C)c2C)n1` came in with a melting point of 145 to 147 °C.

For the molecule `O=C1N[C@H](Cc2cccc(OC(F)(F)C(F)F)c2)[C@H](c2cccc(F)n2)O1` (racemic), the melting point was in the range of 118 to 119 °C.

Consider `CC(C)(C)ON=C(C(=O)O)c1cccs1`, for which the melting point fell in the range of 106 to 107 °C.

Consider `CC(=O)Nc1c(C(=O)c2ccc(F)cc2)[nH]c2cc(Cl)ccc12`, for which the melting point fell in the range of 205 to 207 °C.

In turn, `CCOC1=NN(C)C(=O)C1` registered a melting point of 79 to 80 °C.

`O=c1[nH]c(C=Cc2ccc([N+](=O)[O-])o2)nc2ccccc12` showed a melting point of 327 °C.

`Cc1cc(C)n(-c2ncc(C)c(Nc3ccc(Cl)cc3)n2)n1` had a melting point of 179 to 182 °C.

Molecule `COc1ccc(O)c2[nH]c(C)c(C)c12` yielded a melting point of 159 °C.

As to `COc1ccc(N(C)c2nc(C)nc3oc(C)cc23)cc1`, the melting point lay within 108 to 109 °C.

`Cc1oc2c(-c3ccc(F)cc3)c(-c3ccc(S(C)(=O)=O)cc3)nn2c1-c1cccs1` yielded a melting point of 240 to 241 °C.

The molecule `CC1(C)CC(N(CCCCCCN(CCC(=O)O)C2CC(C)(C)NC(C)(C)C2)CCC(=O)O)CC(C)(C)N1` displayed a melting point greater than 250 °C.

In the case of `CC(C)C(=O)NC1C(OCc2ccccc2)=CC=CC1(Br)[N+](=O)[O-]` (centres undefined), the melting point was 197 to 198 °C.

Regarding `C=CCN(C#N)c1c(Cl)ccc2nsnc12`, the melting point lay in the range of 62 to 63 °C.

`CC(C)(C)C(=O)C=Cc1cnc2ccccc2c1` showed a melting point of 146 to 148 °C.

With `N#CCc1cc(C(=O)c2ccc(Cl)cc2)cn1Cc1ccccc1`, the melting point lay in the range of 102 to 104 °C.

As for `Nc1nccn2c(C3CCC3)nc(-c3ccc4cccnc4c3)c12`, the melting point was in the range of 94 to 96 °C.

`c1cnc(NCc2ccc(-c3n[nH]c4c3Cc3ccccc3-4)s2)nc1` yielded a melting point of 232 to 233 °C.

`Cc1cc(C(C)(C)C)cc(C)c1S(F)(F)F` showed a melting point of 59.1 °C.

`CCCCn1ccc(-c2ccc3c(ccn3[C@H]3CC[C@H](O)CC3)c2)c(Cl)c1=O` registered a melting point of 191 °C.

Regarding `O=C(NCc1ccccc1)c1csc(-n2ccc(OCc3ccccc3)cc2=O)c1`, the melting point lay in the range of 162 to 163 °C.

Molecule `FC(F)(F)c1nnc2ccc(-c3ccccc3)nn12` had a melting point of 183 to 184 °C.

Take `CCOC(=O)CCCCOc1ccc(C(=N)NC(=O)OCc2ccccc2)cc1`: the melting point lay in the range of 88 to 90 °C.

In turn, `CCc1cc([N+](=O)[O-])c(N)cc1Cl` had a melting point of 100 to 101 °C.

Molecule `CC(C)=NN(C)C1=NOCc2ccc(Cl)cc21` yielded a melting point of 105 to 106 °C.

Regarding `Cc1cc(-c2ccc(Cl)cc2)nc2c(C(=O)Nc3cccc(S(N)(=O)=O)c3)cnn12`, the melting point is 308 to 310 °C.

In turn, `CN(C)c1nc(N(C)Cc2ccc(O)cc2)nc(N(C)Cc2ccccc2O)n1` had a melting point of 80 to 81 °C.

For the molecule `CC(C)n1nc(C#Cc2ccccc2)ccc1=O`, the melting point lay in the range of 75.5 to 77 °C.

In the case of `Nc1nnc(-c2cccc(Oc3cccc(COc4ccc(Cl)c(Cl)c4)c3)c2)s1`, the melting point lay within 128 to 130 °C.

`O=C(O)c1cc(OCCCc2cc(-c3ccc(C(F)(F)F)cc3)no2)nn1-c1ccccc1` yielded a melting point of 145 to 146 °C.

The molecule `Fc1ccc2[nH]cc(CC3CCN(CCOc4cccc5c4OCCO5)CC3)c2c1` yielded a melting point of 157 to 159 °C.

The molecule `O=C(OCN1C(=O)c2ccccc2C1=O)c1ccccc1N=Nc1ccc(O)c(O)n1` yielded a melting point of 196 to 201 °C.

Molecule `CC1C(=O)Nc2c(C(=O)c3ccccc3)cccc21` (centres undefined) had a melting point of 125 to 127 °C.

On to `FC(F)(F)c1ccc(-c2cc(Oc3ccc4c(C(F)(F)F)ccnc4c3)ncn2)cc1`, for which the melting point was in the range of 129 to 131 °C.

On to `O=c1c2c(Cl)cc(Cl)cc2n(Cc2ccccc2)c(=O)n1Cc1ccc(Cl)cc1`, for which the melting point lay within 161 to 165 °C.

Take `CCCCCCCCS(=O)(=O)Nc1cc(C(F)(F)F)ccc1Oc1ccccc1C(=O)O`: the melting point was 167 to 168 °C.

For `CC(C)(C)c1cc(C(=O)NN(C(=O)O)C(C)(C)C)cc(C(C)(C)C)c1O`, the melting point worked out at 196 °C.

As to `CS(=O)(=O)c1cc(C(=O)O)cc([N+](=O)[O-])c1Cl`, the melting point was in the range of 190 to 194 °C.

For `CC(=O)c1cn(Cc2ccccc2F)c(=O)n(Cc2ccccc2F)c1=O`, the melting point is 149 to 150 °C.

Molecule `C=C(CCCO)c1ccc(C(=O)OC)cc1` displayed a melting point of 28 to 30 °C.
